Assays:
[1] = system: hospitalized patients with Covid-19; settings: WHO Solidarity Trial; cited from earlier work
SARS CoV-2 = settings: whole blood or plasma samples collected with the anticoagulant
[2] = system: adults with mild COVID-19; settings: cited from earlier work

Row | Compound | effect on hospitalized patients with Covid-19 [1] | inhibition of certain SARS CoV-2 assays (SARS CoV-2) | other results
1 | CCN(CCO)CCCC(C)Nc1ccnc2cc(Cl)ccc12 (centres unmarked) [hydroxychloroquine] | little or no effect | – | –
2 | Cc1cccc(C)c1OCC(=O)N[C@@H](Cc1ccccc1)[C@@H](O)C[C@H](Cc1ccccc1)NC(=O)[C@H](C(C)C)N1CCCNC1=O [lopinavir] | little or no effect | – | –
3 | heparin sodium [sodium heparin] | – | inhibited | –
4 | ivermectin | – | – | effect on the duration of symptoms [2]: not have a significant effect
5 | lithium heparin | – | inhibited | –

From patent US20230210890A1, “COMPOSITIONS AND METHODS OF TREATING COVID-19 WITH HEPARIN OR OTHER NEGATIVELY CHARGED MOLECULES” (Siemens Healthcare Diagnostics Inc., priority 2020, published 2023)
